Values quoted from earlier work as cited in patent publication US5462964A, “Dipeptide boronic acid inhibitors of trypsin-like enzymes” (The Du Pont Merck Pharmaceutical Company, priority 1993, dated 1995).
pKi: −log10 of the molar value. One block for each compound: values may come before it.

Experiments:
[1] = molecular target: T1, thrombin (Homo sapiens, UniProt P00734); settings: reversible inhibitor of thrombin; literature / EP 293 881
[2] = system: blood coagulation; settings: both in vitro and in vivo; EP 293 881
[3] = molecular target: T1, thrombin; settings: Kettner and Shaw Thromb. Res. 14, 969 (1979)
[4] = molecular target: chymotrypsin (Bos taurus, UniProt P00766); settings: Matteson et al. J. Am. Chem. Soc. 103, 5241 (1981)

- pKi [1]: 7.12
SMILES: CC(=O)N[C@H](Cc1ccccc1)C(=O)N1CCC[C@H]1C(=O)N[C@H](C=O)CCCNC(=N)N [Ac-D-Phe-Pro-Arg-H]

SMILES: CC(=O)N[C@H](Cc1ccccc1)C(=O)N1CCC[C@H]1C(=O)N[C@@H](CCCN=C(N)N)B(O)O [Ac-D-Phe-Pro-boroArgOH]
- inhibition of blood coagulation [2]: highly effective

SMILES: CC(=O)NC(Cc1ccccc1)C(=O)N1CCCC1C(=O)NC(CCCNC(=N)N)C(=O)CCl [Ac-D-Phe-Pro-ArgCH2 Cl]
- inhibitor of human thrombin [3]: potent and selective irreversible inhibitor

- pKi [4]: 5.40
SMILES: CC(=O)N[C@@H](Cc1ccccc1)B(O)O [Ac-boroPhe-OH, (R)-1-acetamido-2-phenylethane boronic acid]
